Assays:
Assay in all cases: MIC, liquid medium test tube series dilution test
E. coli 14 = format: cell-based; conditions: E. coli 14, 24 hours, 37°C
Method: (§1) The chemotherapeutic activity of the new penicillins was tested in vivo and in vitro. The in vitro inhibition values (MIC = minimum inhibition concentration (see Tables 1 and 2) were determined in a liquid medium in the test tube series dilution test, with readings being taken after 24 hours' incubation at 37°C. The MIC is indicated by the non-turbid test tube in the dilution series. A complete medium of the following composition was used as the nutrient medium:
(§2) The figures quoted in the Examples for the effectiveness against certain bacteria (units/ml) are minimum inhibitory concentrations in the test tube series dilution test after 24 hours' incubation.

[1] = system: Streptoc. faec. ATCC 9790; format: cell-based; conditions: Strep. faec. (Enterococcus) ATCC 9790, 24 hours, 37°C
Method: as §1, §2

E. coli 183/58 = format: cell-based; conditions: E. coli 183/58, 24 hours, 37°C
Method: as §1, §2

Klebsiella 63 = format: cell-based; conditions: Klebsiella 63, 24 hours, 37°C
Method: as §1, §2

Klebsiella K 10 = format: cell-based; conditions: Klebsiella K 10, 24 hours, 37°C
Method: as §1, §2

E. coli A 261 = format: cell-based; conditions: E. coli A 261, 24 hours, 37°C
Method: as §1, §2

E. coli C 165 = format: cell-based; conditions: E. coli C 165, 24 hours, 37°C
Method: as §1, §2

Proteus vulg. 3400 = format: cell-based, Proteus vulgaris; conditions: Proteus vulg. 3400, 24 hours, 37°C
Method: as §1, §2

Proteus vulg. 1017 = format: cell-based, Proteus vulgaris; conditions: Proteus vulg. 1017, 24 hours, 37°C
Method: as §1, §2

Staph. aureus 133 = format: cell-based, Staphylococcus aureus; conditions: Staph. aureus 133, 24 hours, 37°C
Method: as §1, §2

Psdm. aerug. Bonn = format: cell-based, Pseudomonas aerug.; conditions: 24 hours, 37°C
Method: as §1, §2

Psdm. aerug. Walter = format: cell-based, Pseudomonas aerug.; conditions: 24 hours, 37°C
Method: as §1, §2

MIC (E. coli 14)	MIC [1]	MIC (E. coli 183/58)	MIC (Klebsiella 63)	MIC (Klebsiella K 10)	MIC (E. coli A 261)	MIC (E. coli C 165)	MIC (Proteus vulg. 3400)	MIC (Proteus vulg. 1017)	MIC (Staph. aureus 133)	MIC (Psdm. aerug. Bonn)	MIC (Psdm. aerug. Walter)	Structure (SMILES)	also measured
3.1 units/ml	200 units/ml	12.5 units/ml	50 units/ml	50 units/ml	400 units/ml	12.5 units/ml	25 units/ml	100 units/ml	~ 0.8 units/ml	100 units/ml	100 units/ml	CN(C(=O)CCCCl)C(=O)N[C@@H](C(=O)N[C@@H]1C(=O)N2[C@@H]1SC(C)(C)[C@@H]2C(=O)O)c1ccccc1 [Example 2, Sodium D(-)-α-(3-γ-chlorobutyryl-3-methyl-ureido)-benzylpenicillin]	
0.8-4 units/ml	100-500 units/ml	4-20 units/ml	20-100 units/ml	20-100 units/ml	100-500 units/ml	4-20 units/ml	4-20 units/ml	4-20 units/ml		20-100 units/ml	20-100 units/ml	Cc1ccc(C(NC(=O)N(C)C(=O)c2ccccc2)C(=O)N[C@@H]2C(=O)N3[C@@H]2SC(C)(C)[C@@H]3C(=O)O)cc1 (stereo partly drawn) [Example 4, Sodium D,L-α-(3-benzoyl-3-methyl-ureido)-p-methylbenzyl-penicillin]	
20-100 units/ml	~ 500 units/ml	100-500 units/ml	> 500 units/ml	> 500 units/ml	> 500 units/ml	100-500 units/ml	> 500 units/ml	> 500 units/ml	0.8-4 units/ml	> 500 units/ml	> 500 units/ml	COC(=O)N(C)C(=O)NC(C(=O)N[C@@H]1C(=O)N2[C@@H]1SC(C)(C)[C@@H]2C(=O)O)c1c(Cl)cccc1Cl (stereo partly drawn) [Example 9, Sodium D,L-α-(3-methoxycarbonyl-3-methyl-ureido)-2,6-dichlorobenzylpenicillin]	
4-20 units/ml	100-500 units/ml	20-100 units/ml	20-100 units/ml	20-100 units/ml	> 500 units/ml	20-100 units/ml	~ 100 units/ml	100-500 units/ml	0.8-4 units/ml	100-500 units/ml	100-500 units/ml	C=CCN(C(=O)NC(C(=O)N[C@@H]1C(=O)N2[C@@H]1SC(C)(C)[C@@H]2C(=O)O)c1ccc(OC)cc1)C(=O)c1ccccc1 (stereo partly drawn) [Example 14, Sodium D,L-α-(3-benzoyl-3-allyl-ureido)-4-methoxybenzylpenicillin]	
20-100 units/ml	> 500 units/ml	100-500 units/ml	> 500 units/ml	> 500 units/ml	> 500 units/ml	100-500 units/ml	> 500 units/ml	> 500 units/ml	0.8-4 units/ml	> 500 units/ml	> 500 units/ml	C=CCN(C(=O)NC(C(=O)N[C@@H]1C(=O)N2[C@@H]1SC(C)(C)[C@@H]2C(=O)O)c1c(Cl)cccc1Cl)C(=O)c1ccccc1 (stereo partly drawn) [Example 15, Sodium D,L-α-(3-benzoyl-3-allyl-ureido)-2,6-dichlorobenzylpenicillin]	
4-20 units/ml	20-100 units/ml	20-100 units/ml	20-100 units/ml	20-100 units/ml	> 500 units/ml	20-100 units/ml	100-500 units/ml	> 500 units/ml	< 0.8 units/ml	100-500 units/ml	100-500 units/ml	C=CCN(C(C)=O)C(=O)NC(C(=O)N[C@@H]1C(=O)N2[C@@H]1SC(C)(C)[C@@H]2C(=O)O)c1cccs1 (stereo partly drawn) [Example 17, Sodium D,L-α-(3-acetyl-3-allyl-ureido)-2-thienylmethylpenicillin]	
			50 units/ml	100 units/ml								CC1(C)S[C@@H]2[C@H](NC(=O)C(NC(=O)N3CCNC3=O)c3ccc(Cl)cc3)C(=O)N2[C@H]1C(=O)O (stereo partly drawn) [Example 48 A, Sodium α-[(imidazolidin-2-on-1-yl)-carbonylamino]-p-chlorobenzylpenicillin]	MIC ([1]; listed as 48 A): 25 units/ml; MIC (E. coli C 165; listed as 48 A): 12,5 units/ml; MIC (Proteus vulg. 3400; listed as 48 A): 50 units/ml; MIC (Proteus vulg. 1017; listed as 48 A): 25 units/ml; MIC (Psdm. aerug. Bonn; listed as 48 A): 25 units/ml
6.25 units/ml	25 units/ml	25 units/ml	200 units/ml	200 units/ml		12.5 units/ml	50 units/ml	50 units/ml	1.56 units/ml	25 units/ml	25 units/ml	COC(=O)N(C)C(=O)N[C@@H](C(=O)N[C@@H]1C(=O)N2[C@@H]1SC(C)(C)[C@@H]2C(=O)O)c1ccccc1 [Example 96, Sodium D(-)-α-(3-methoxycarbonyl-3-methyl-ureido)-benzylpenicillin]	MIC (E. coli 14; listed as (B) of Example 10): 6.25 units/ml; MIC (E. coli 183/58; listed as (B) of Example 10): 25 units/ml; MIC (Klebsiella 63; listed as (B) of Example 10): 200 units/ml; MIC (Klebsiella K 10; listed as (B) of Example 10): 200 units/ml; MIC (Staph. aureus 133; listed as (B) of Example 10): 1.56 units/ml; MIC (Psdm. aerug. Bonn; listed as (B) of Example 10): 25 units/ml; MIC (Psdm. aerug. Walter; listed as (B) of Example 10): 25 units/ml
6.25 units/ml		6.25 units/ml	50 units/ml	400 units/ml		25 units/ml	25 units/ml	25 units/ml		25 units/ml	50 units/ml	CC(C)OC(=O)N(C)C(=O)N[C@@H](C(=O)N[C@@H]1C(=O)N2[C@@H]1SC(C)(C)[C@@H]2C(=O)O)c1ccccc1 [Example 97, Sodium D(-)-α-(3-i-propoxycarbonyl-3-methyl-ureido)-benzylpenicillin]	MIC (E. coli 14; listed as (B) of Example 11): 6.25 units/ml; MIC (E. coli 183/58; listed as (B) of Example 11): 6.25 units/ml; MIC (E. coli C 165; listed as (B) of Example 11): 25 units/ml; MIC (Psdm. aerug. Bonn; listed as (B) of Example 11): 25 units/ml; MIC (Psdm. aerug. Walter; listed as (B) of Example 11): 50 units/ml
0.8 units/ml		1.6 units/ml	12.5 units/ml	6.25 units/ml	50 units/ml	3.1 units/ml	3.1 units/ml	3.1 units/ml		12.5 units/ml	6.25 units/ml	CN(C(=O)N[C@@H](C(=O)N[C@@H]1C(=O)N2[C@@H]1SC(C)(C)[C@@H]2C(=O)O)c1ccccc1)C(=O)c1c(Cl)cccc1Cl [Example 141, Sodium D(-)-α-(3, o,o'-dichlorobenzoyl-3-methyl-ureido)-benzyl-penicillin]	

Structure (SMILES)	MIC (E. coli 14)	MIC [1]	MIC (E. coli 183/58)	MIC (Klebsiella 63)	MIC (Klebsiella K 10)	MIC (E. coli A 261)	MIC (E. coli C 165)	MIC (Proteus vulg. 3400)	MIC (Proteus vulg. 1017)	MIC (Staph. aureus 133)	MIC (Psdm. aerug. Bonn)	MIC (Psdm. aerug. Walter)	also measured
C=CCN(C(C)=O)C(=O)N[C@@H](C(=O)N[C@@H]1C(=O)N2[C@@H]1SC(C)(C)[C@@H]2C(=O)O)c1ccccc1 [Example 1, Sodium D(-)-α-(3-acetyl-3-allylureido)-benzylpenicillin]	25 units/ml	200 units/ml	100 units/ml	50 units/ml	50 units/ml	> 400 units/ml	100 units/ml	200 units/ml	400 units/ml	1.6 units/ml	400 units/ml	200 units/ml	

From patent US3974140A, “Ureidoacetamido-penicillins” (Bayer Aktiengesellschaft, priority 1970, dated 1976)
